≈ marks a conversion by molar mass, not a printed value. Read-outs that look alike come from different tables or passages of the source.
Columns and labels:
[1] = system: skin and soft tissue infections (SSTI); test: Phase II trial in deep skin and soft tissue infections: clinical response; format: in vivo, human; conditions: exploratory subanalysis
Procedure: (§1) This randomized, controlled study evaluated the safety and efficacy of two dose regimens of dalbavancin.
(§2) There were 62 patients randomized into the study, all received at least one dose of study medication. Four study populations were evaluated for safety and efficacy and were defined as follows: The intent-to-treat (I) population included all patients who received at least one dose of study drug (all randomized study subjects).
The effectiveness of the three treatment regimens was determined by assessing the patients' clinical response and the documented or presumed microbiological responses. The primary efficacy endpoint was clinical response at the follow-up visit for the clinically evaluable population. Clinical response, for both EOT and FU visits, was categorized as success (cure or improvement) or failure (including indeterminate results). Patients classified as successes must not have received additional systemic antibacterial treatment for their infection. Failure was defined as persistence of one or more local or systemic signs and symptoms of SSTI such that treatment with new or additional systemic antibacterial agents was required for the SSTI.

[2] = system: Gram-positive pathogen; test: SSTI trial: microbiologic response, all Gram-positive organisms; format: in vivo, human; conditions: single dose; EOT and FU, microbiologically-evaluable and MITT populations
Procedure: as §1, §2
Microbiological outcome, a secondary efficacy variable, was assessed in the subpopulation of patients who had microbiologically documented SSTI (i.e., at least one identified baseline pathogen). A microbiologic response was assessed for each Gram-positive pathogen identified at baseline (i.e., eradication, presumed eradication, persistence, presumed persistence). For patients for whom follow-up cultures were not performed, the microbiologic responses for baseline pathogens were presumed on the basis of the clinical response. Microbiologic response by patient at the EOT and FU visits was graded as success (i.e., all Gram-positive organisms eradicated or presumed eradicated) or failure (i.e., at least one Gram-positive organism persisted or presumed to have persisted, multiple pathogens with partial eradication). At both the EOT and FU visits, colonization and superinfection were assessed. […]

[3] = system: methicillin-resistant S. aureus (MRSA); format: in vivo
Procedure: The effectiveness of the three treatment regimens was determined by assessing the patients' clinical response and the documented or presumed microbiological responses. The primary efficacy endpoint was clinical response at the follow-up visit for the clinically evaluable population. Clinical response, for both EOT and FU visits, was categorized as success (cure or improvement) or failure (including indeterminate results). […] Failure was defined as persistence of one or more local or systemic signs and symptoms of SSTI such that treatment with new or additional systemic antibacterial agents was required for the SSTI.
Microbiological outcome, a secondary efficacy variable, was assessed in the subpopulation of patients who had microbiologically documented SSTI (i.e., at least one identified baseline pathogen). A microbiologic response was assessed for each Gram-positive pathogen identified at baseline (i.e., eradication, presumed eradication, persistence, presumed persistence). For patients for whom follow-up cultures were not performed, the microbiologic responses for baseline pathogens were presumed on the basis of the clinical response. […] At both the EOT and FU visits, colonization and superinfection were assessed. […]

[4] = system: S. aureus; test: Dalbavancin MIC, baseline isolates of SSTI trial; format: cell-based; conditions: MITT
[5] = system: Streptococcus pyogenes; test: Dalbavancin MIC, baseline isolates of SSTI trial; format: cell-based; conditions: read-out: Dalbavancin MIC, Streptococcus pyogenes, MITT, two-dose group
[6] = system: Miscellaneous Streptococcus and nontypeable strains; test: Dalbavancin MIC, baseline isolates of SSTI trial; format: cell-based; conditions: for Dalbavancin MIC, Miscellaneous Streptococcus and nontypeable strains: MITT
[7] = system: Gram-positive isolates, including MRSA; test: Dalbavancin MIC, Gram-positive isolates of SSTI trial; format: cell-based; conditions: Staphylococcus aureus, read-out: MICs against Gram-positive isolates, including MRSA
[8] = Pharmacokinetics and renal excretion in healthy subjects; conditions: human, in vivo, iv, 1000 mg; for half-life: healthy subjects, single 1000 mg IV
Procedure: Blood samples were drawn into heparinized tubes and centrifuged. Plasma was separated and stored frozen at −20° C. until time of assay. Plasma and urine samples were assayed for dalbavancin using validated LC/MS/MS methods. […] The peak concentration (Cmax) values were obtained directly from the observed data. The area under the plasma concentration-time curve (AUC) was calculated using the linear trapezoidal rule. Clearance (CL) was computed as dose/AUC. The elimination half life (t1/2) was estimated by linear regression of the log-linear portion of the log concentration versus time curve. Estimates of the volume of distribution (Vz) was calculated using the regression parameters, while the volume of distribution at steady state (Vss) was calculated from the area under the first moment curve (AUMC) multiplied by the dose and divided by AUC. The cumulative amount of dalbavancin excreted in urine was determined as the integrand of the urine excretion rate (AURC). CLR or renal clearance, was calculated as the ratio: CLR=AURC/AUC.

[9] = target: Human albumin (Homo sapiens, UniProt P02768); conditions: pH 7.4
Procedure: (§3) Integrated heat effects, after correction for heats of dilution, were analyzed by non-linear regression using a simple single-site binding model with the standard Microcal ORIGIN software package. Raw data (μcal/sec) for each injection were integrated to give the total heat effect per addition, then divided by amount of injectant to give kcal/mole of injectant. The same integration was applied for control dilution effects, and this was subtracted from the actual titration data. This provided a differential of the binding curve in which the extent of binding is proportional to the total heat liberated (or absorbed). This was then analyzed by non-linear regression methods in terms of various standard binding models.

[10] = system: human α-glycoprotein; conditions: pH 7.4
Procedure: as §3

[11] = rat, in vivo
Procedure: (§4) Excreta and more than 40 different tissues were collected through 70 days post-administration, and the tissue distribution and pharmacokinetics of drug-derived radioactivity were determined.
Following dose administration, urine and feces were collected at 24 hour intervals to 14, 36, and 70 days after the dose (3 rats/final collection time). Water and methanol cage washes were also collected. Carcasses were analyzed at the end of the collection period. AU samples were analyzed for total radioactivity content by liquid scintillation counting (LSC).

[12] = pH 7.4
[13] = Safety assessments in healthy subjects; conditions: single 1000 mg IV
Procedure: Adverse events were recorded and assessed for severity and relationship to study drug. Laboratory data (chemistry panel, CBC with differential, urinalysis) were collected and assessed for changes from baseline and out-of-range values. ECG, physical examination, and vital signs were obtained, and changes from baseline were assessed.

[14] = Rat quantitative tissue distribution (QTD) study; conditions: male rats, single IV infusion 20 mg/kg
Procedure: as §4
Rats (3 per time-point) were euthanized at 12, 24, 48, 72, 96, 120, 144, 168, 336, 840, 1176 and 1680 hours post dose for collection of blood, plasma, and tissues (including carcass). All samples were analyzed by LSC.
As part of the QTD studies, bile samples were collected from bile duct cannulated rats (4 animals) through 384 h (16 days) post-dose.

[15] = target: Rat albumin (Rattus norvegicus, UniProt P02770); test: Protein binding by isothermal titration microcalorimetry; conditions: Apparent binding affinity Ka, pH 7.4, ± SD of fit
Procedure: as §3

[16] = target: Dog albumin (Canis lupus familiaris, UniProt P49822); test: as above; conditions: Apparent binding affinity Ka, pH 7.4, ± SD of fit
Procedure: as §3

[17] = target: Bovine albumin (Bos taurus, UniProt P02769); test: as above
Procedure: as §3

[18] = two-dose 1000 mg IV day 1, 500 mg day 8

Human albumin, sequence (P02768 25-609): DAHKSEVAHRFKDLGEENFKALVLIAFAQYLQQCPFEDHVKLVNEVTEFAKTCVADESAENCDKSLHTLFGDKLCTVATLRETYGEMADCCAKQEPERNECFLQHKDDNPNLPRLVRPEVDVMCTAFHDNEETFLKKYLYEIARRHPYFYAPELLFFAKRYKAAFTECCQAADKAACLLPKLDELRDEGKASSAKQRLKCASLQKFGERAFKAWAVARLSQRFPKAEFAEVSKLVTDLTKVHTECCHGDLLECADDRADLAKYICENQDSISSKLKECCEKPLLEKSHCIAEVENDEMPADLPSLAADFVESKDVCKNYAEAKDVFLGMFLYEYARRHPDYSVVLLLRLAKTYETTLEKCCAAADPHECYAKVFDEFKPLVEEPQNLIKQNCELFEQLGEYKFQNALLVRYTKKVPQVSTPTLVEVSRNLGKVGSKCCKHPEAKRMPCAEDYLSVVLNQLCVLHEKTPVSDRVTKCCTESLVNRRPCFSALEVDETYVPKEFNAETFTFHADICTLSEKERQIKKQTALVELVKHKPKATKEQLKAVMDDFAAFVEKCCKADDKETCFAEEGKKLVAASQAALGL
Dog albumin, sequence (P49822 25-608): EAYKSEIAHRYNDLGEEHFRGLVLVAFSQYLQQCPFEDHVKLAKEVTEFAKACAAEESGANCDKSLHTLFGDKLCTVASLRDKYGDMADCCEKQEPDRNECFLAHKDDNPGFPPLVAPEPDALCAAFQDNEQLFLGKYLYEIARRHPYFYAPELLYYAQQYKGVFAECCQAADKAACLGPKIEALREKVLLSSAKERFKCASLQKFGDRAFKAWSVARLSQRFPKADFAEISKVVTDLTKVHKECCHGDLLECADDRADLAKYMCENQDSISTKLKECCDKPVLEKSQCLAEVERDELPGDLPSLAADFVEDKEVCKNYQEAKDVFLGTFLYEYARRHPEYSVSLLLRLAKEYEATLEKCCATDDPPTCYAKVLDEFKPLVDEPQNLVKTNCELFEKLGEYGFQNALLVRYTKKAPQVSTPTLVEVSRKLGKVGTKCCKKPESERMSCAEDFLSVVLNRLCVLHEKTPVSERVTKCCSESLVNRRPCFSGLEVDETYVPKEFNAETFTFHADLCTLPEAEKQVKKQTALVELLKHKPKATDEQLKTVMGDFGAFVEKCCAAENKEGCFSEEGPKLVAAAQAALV
Rat albumin, sequence (P02770 25-608): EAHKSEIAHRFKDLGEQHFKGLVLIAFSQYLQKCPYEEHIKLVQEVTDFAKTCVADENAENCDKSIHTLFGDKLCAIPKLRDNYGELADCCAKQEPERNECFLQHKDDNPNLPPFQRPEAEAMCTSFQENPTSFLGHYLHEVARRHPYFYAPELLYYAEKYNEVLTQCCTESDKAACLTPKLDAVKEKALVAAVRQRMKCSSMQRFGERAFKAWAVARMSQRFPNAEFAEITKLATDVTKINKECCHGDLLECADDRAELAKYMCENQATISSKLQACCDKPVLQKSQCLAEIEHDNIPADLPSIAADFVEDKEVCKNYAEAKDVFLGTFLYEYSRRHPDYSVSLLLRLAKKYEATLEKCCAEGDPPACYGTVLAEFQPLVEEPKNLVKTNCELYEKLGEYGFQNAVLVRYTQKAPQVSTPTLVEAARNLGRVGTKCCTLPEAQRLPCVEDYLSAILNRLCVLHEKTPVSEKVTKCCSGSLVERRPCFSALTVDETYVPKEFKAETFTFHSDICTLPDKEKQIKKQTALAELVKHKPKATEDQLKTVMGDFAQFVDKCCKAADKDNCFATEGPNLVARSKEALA
Bovine albumin, sequence (P02769 25-607): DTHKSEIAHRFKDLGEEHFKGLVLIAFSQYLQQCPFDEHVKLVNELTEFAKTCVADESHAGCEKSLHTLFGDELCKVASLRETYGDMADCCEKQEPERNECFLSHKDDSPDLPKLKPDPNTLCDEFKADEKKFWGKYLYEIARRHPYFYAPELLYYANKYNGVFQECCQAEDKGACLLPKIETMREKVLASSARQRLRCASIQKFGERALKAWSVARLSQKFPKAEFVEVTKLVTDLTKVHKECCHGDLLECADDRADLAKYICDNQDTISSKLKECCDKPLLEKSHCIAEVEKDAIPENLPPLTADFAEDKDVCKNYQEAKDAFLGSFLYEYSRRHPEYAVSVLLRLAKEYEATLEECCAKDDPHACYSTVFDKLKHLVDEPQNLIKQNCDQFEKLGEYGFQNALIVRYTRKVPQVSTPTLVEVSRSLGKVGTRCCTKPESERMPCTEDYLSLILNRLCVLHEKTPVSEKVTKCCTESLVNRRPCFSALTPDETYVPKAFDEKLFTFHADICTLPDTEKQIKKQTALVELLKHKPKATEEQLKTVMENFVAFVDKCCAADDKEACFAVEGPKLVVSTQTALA

CN[C@H]1C(=O)N[C@@H]2Cc3ccc(cc3)Oc3cc4cc(c3O[C@@H]3O[C@H](C(=O)O)[C@@H](O)[C@H](O)[C@H]3NC(=O)CCCCCCCCC(C)C)Oc3ccc(cc3Cl)[C@@H](O)[C@@H]3NC(=O)[C@H](NC(=O)[C@@H]4NC(=O)[C@@H](NC2=O)c2cc(cc(O)c2Cl)Oc2cc1ccc2O)c1ccc(O)c(c1)-c1c(O[C@H]2O[C@H](CO)[C@@H](O)[C@H](O)[C@@H]2O)cc(O)cc1[C@@H](C(=O)NCCCN(C)C)NC3=O [Dalbavancin]
Clinical success rate, patients with deep or complicated SSTI at baseline ([1]; single-dose 1100 mg IV day 1): 58.3% | Clinical success rate, patients with deep or complicated SSTI at baseline [1, 18]: 93.8% | Microbiologic success rates at both visits (summary) [2]: < 40% | Clinical success rate at FU, MITT patients with MRSA ([3]; single-dose 1100 mg IV day 1): 50% | Clinical success rate at FU, MITT patients with MRSA [3, 18]: 80% | Dalbavancin MIC range, All S. aureus ([4]; standard of care group): 10 (0.016-0.25) mg/L | Dalbavancin MIC, All S. aureus ([4]; two-dose group): 11 (0.12) mg/L | MIC [5]: 0.016 mg/L (≈ 8.81 nM) | Dalbavancin MIC, Miscellaneous Streptococcus and nontypeable strains ([6]; standard of care group): 4 (0.016) mg/L | Dalbavancin MIC, Miscellaneous Streptococcus and nontypeable strains ([6]; two-dose group): 2 (0.016) mg/L | MIC ([6]; Streptococcus, read-out: Dalbavancin MIC, Miscellaneous Streptococcus and nontypeable strains, MITT, single dose group): 0.016 mg/L (≈ 8.81 nM) | MIC [7]: 0.016 to 0.25 mg/L (≈ 8.81 to 138 nM) | AUC ([8]; both sexes): 23800 µg·h/mL | clearance ([8]; both sexes): 0.718 mL/min | Vd ([8]; both sexes, Apparent volume of distribution): > 10 L | CL renal ([8]; both sexes, CLR): 0.3 mL/min | Vd ([8]; both sexes, VSS): 11.5 L | Vd ([8]; both sexes, VZ): 16 L | half-life ([8]; both sexes): 9 to 12 days | half-life ([8]; both sexes, mean): 10.7 days | CL ([8]; both): 0.0431 L/h | CLR ([8]; both): 0.0181 L/h | Calculated percent Binding, Human albumin ([9]; 1 μM): 98.8% | Calculated percent Binding, Human albumin ([9]; 10 μM): 98.8% | Calculated percent Binding, Human albumin ([9]; 100 μM): 98.7% | Calculated percent Binding, Human albumin ([9]; 165 μM): 98.6% | Calculated percent Binding, Human albumin ([9]; 250 μM): 98.5% | Calculated percent Binding, Human albumin ([9]; 500 μM): 98.0% | Calculated percent Binding, Human α-glycoprotein ([10]; 1 μM): 73.0% | Calculated percent Binding, Human α-glycoprotein ([10]; 10 μM): 68.2% | Calculated percent Binding, Human α-glycoprotein ([10]; 100 μM): 26.2% | Calculated percent Binding, Human α-glycoprotein ([10]; 165 μM): 16.9% | Calculated percent Binding, Human α-glycoprotein ([10]; 250 μM): 11.4% | Calculated percent Binding, Human α-glycoprotein ([10]; 500 μM): 5.9% | Dose remaining in the carcass ([11]; male, Sprague-Dawley, 1680 h): 4.5% | Radioactivity administered eliminated in urine and feces within the first week ([11]; iv, 20 mg/kg): Approximately half | Share of excreted radioactivity eliminated in feces ([11]; iv, 20 mg/kg): ⅓ | Share of excreted radioactivity eliminated in urine ([11]; iv, 20 mg/kg): ⅔ | Solubility in the presence of HSA [12]: significantly increased | Deaths or serious adverse events [13]: No subject deaths or serious adverse events | Skin concentrations of drug-derived radioactivity relative to plasma [14]: as high as or higher than in plasma | Kd ([15]; 25° C.): 3.23 µM | Kd ([15]; 37° C.): 3.57 µM | Kd ([16]; 25° C.): 16.1 µM | Kd ([16]; 37° C.): 20 µM | Kd [17]: 7.25 µM
